One data set relates to PRRSV GSWW-15. As to the kind of experiment: EC50 against GSWW-15 strain on PAM cells. The format is cell-based. The note with it: Porcine reproductive and respiratory syndrome virus. From the text:
(§1) Supplementary Fig. 3: Cytotoxicity and Antiviral Efficacy of NTZ.
(§2) PRRSV capsid protein positive
(§3) (primary antibody SR30, green) and nuclei (DAPI, blue).

The conditions of data set [1]: pig, in vivo, po. On the procedure: Blood samples were collected from the anterior vena cava for complete blood count using a PE-6800VET analyzer (Prokan) and biochemical analysis using a VetTest Plasma Chemistry Analyzer (IDEXX). Reference ranges were obtained from Iowa State University College of Veterinary Medicine (https://vetmed.iastate.edu/vpath/services/diagnostic-services/clinical-pathology/testing-and-fees/reference-intervals). IHC were performed as previously described, involving 24-h incubation with SR30 antibody (1:400) and subsequent treatment with HRP-labeled secondary antibody.
Supplementary Fig. 6: Complete Blood Counts and Biochemical Analysis.
Six animals from the same enclosure were divided into three groups (n = 2) and fed different doses of NTZ twice daily for three
consecutive days, with a 12-hour interval. Parameters measured included White Blood Cell (WBC) counts, Lymphocyte (LYM)
percentages, Monocyte (MONO) counts, Neutrophil (NEU) counts, Red Blood Cell (RBC) counts, Hemoglobin (HGB)
concentration, Mean Corpuscular Hemoglobin (MCH), Mean Corpuscular Hemoglobin Concentration (MCHC), Platelet (PLT)
counts, Albumin (ALB) concentration, Total Protein (TP) concentration, Glucose (GLU) levels, Alkaline Phosphatase (ALP)
levels, Total Bilirubin (TBIL) levels, and Blood Urea Nitrogen (BUN) concentration. The grey areas in each panel represent the
reference ranges for these indices.

Data set [2] relates to PRRSV GSWW-18 strain. As to the kind of experiment: PRRSV transmission to co-housed pigs. It is filed as in vivo, pig. The note with it: 25 mg/kg, from 0 dpi; two co-house animals uninfected. The method, then: Although the replication mechanism of PRRSV in blood is not fully understood, viremia is an undoubted marker of disease severity[22],[23]. […] On the second day post-infection, we administered NTZ at dosages of 10 mg/kg or 5 mg/kg and monitored the dynamics of PRRSV in the blood within 24 h (Fig. 4b). We observed that NTZ acted swiftly. […] Further experiments explored NTZ’s role in viral transmission (Fig. 4c).
Fig. 4 NTZ inhibition of PRRSV shedding and transmission. a Viral load in blood, and shedding in oronasal and anal swabs. Viral load or shedding in blood and oronasal swabs were quantified from 2 to 4 dpi, and in anal swabs from 2 to 5 dpi. Viral copy numbers for each pig during this period are presented. b NTZ suppression of PRRSV proliferation in blood. […] Parameters were calculated using a non-compartmental analysis (NCA). Eighteen pigs were evenly divided into three dosage groups (n = 6), each housed separately, fasted for 12 h before the experiment, and monitored by professional veterinarians for welfare and enclosure cleaning to prevent coprophagia. g Tissue distribution of NTZ’s main metabolite TIZ. Tissues were collected as per Method Pharmacokinetics and Tissue Distribution of NTZ, quantifying TIZ content at various times (n = 2). […]

Data set [3] concerns Porcine alveolar macrophages (PAM). As to the kind of experiment: in vitro. On the procedure: (§4) A concentration-gradient screening strategy was employed for 141 compounds using indirect immunofluorescence assay (IFA). […] Data are mean ± SEM.
(§5) Cells were seeded in 96-well plates and grown in DMEM supplemented with 10% FBS. Upon reaching confluence, compounds were diluted to varying concentrations in 2% FBS-containing medium. Control wells contained DMEM with 0.5% DMSO. Treated cells were incubated at 37 °C in a 5% CO2 humidified environment for 48 or 72 h, followed by cytotoxicity assessment as outlined in our previous work[21]. […]

A further data set is described as follows: in vitro. The settings on record: pig. The method, then: as §4, §5
The subject of data set [4] is PRRSV GSWW-18 strain. As to the kind of experiment: In vivo antiviral effect in swine infected with GSWW-18 strain. Details: species or system pig. The note with it: for PRRSV dynamics in blood within 24 h: 48 h post infection.
The test system of the next data set is PRRSV VR2332. In words: EC50 against VR-2332 strain on PAM cells. The settings on record: Porcine reproductive and respiratory syndrome virus. The format is cell-based.
Text: as §1, §2, §3

The mark [5] stands for this setting: treatment group, only 25 mg/kg, P < 0.0001.

The results in this text go back to article PMC11156899, “High-throughput screening unveils nitazoxanide as a potent PRRSV inhibitor by targeting NMRAL1” (Nature Communications, 2024).

A word on the EC50: it is the concentration giving half of the maximal effect. For `CC(=O)Oc1ccccc1C(=O)Nc1ncc([N+](=O)[O-])s1` [Nitazoxanide], the results for the EC50 in the data set with PRRSV GSWW-15 and in the data set on PRRSV VR2332 were roughly 1.17 µM and roughly 0.67 µM, respectively. Moreover, the “adverse reactions (hematology, biochemical indices, clinical activity)” value in data set [1] was “No adverse reactions”. Besides, the “PRRSV transmission to co-housed animals” value in the data set on PRRSV GSWW-18 strain [2] is on record as “can help limit PRRSV transmission”. The “cytotoxicity (in words)” value in data set [3] was “low cytotoxicity”. In the data set “in vitro”, this molecule displayed a CC50 at 48 h of roughly 44 µM. The “PRRSV dynamics in blood within 24 h” value is “viral loads decreased from 2 h to 8 h post administration” in the data set with PRRSV GSWW-18 strain [4] (5 mg/kg oral at 0 h and 12 h); “more pronounced inhibition” in the data set with PRRSV GSWW-18 strain [4] (10 mg/kg oral at 0 h and 12 h). In addition, the “body temperature and weight” value in the data set with PRRSV GSWW-18 strain [4] (25 mg/kg oral) is “alleviated the rise in body temperature and weight loss”. In the data set with PRRSV GSWW-18 strain [4] (25 mg/kg oral, prophylactic and therapeutic groups, vs MOCK), the “lung PRRSV-positive cells (IHC)” value is listed as “fewer lung PRRSV-positive cells”. The “clinical symptoms by day 7” value with PRRSV GSWW-18 strain [4] (25 mg/kg, treatment and prophylactic groups) was “no apparent clinical symptoms”. Moreover, the “interstitial pneumonia with lobar consolidation” value with PRRSV GSWW-18 strain [4] (a specific dose of NTZ, PO BID 3 days) is “significantly mitigated”. The “fatalities within 14 days” value in the data set on PRRSV GSWW-18 strain [4] (pig, in vivo) is reported as “no fatalities”. Also, the “PRRSV replication in ManLNs, lungs and tonsils” value in the data set on PRRSV GSWW-18 strain [4] (prophylactic and treatment groups, P < 0.0332) was “significantly reduced”. Further, the “PRRSV viral load in blood” value with PRRSV GSWW-18 strain [4] (prophylactic group, 5 mg/kg, P = 0.0033) was “significantly reduced”. The “viral copy numbers in BALF” value in the data set on PRRSV GSWW-18 strain [4] (prophylactic group, 10 mg/kg and 25 mg/kg, P < 0.0001) is on record as “significant effects”; with PRRSV GSWW-18 strain [4] (setting [5]) it was “achieved statistical significance”. In addition, the oronasal shedding result in the data set with PRRSV GSWW-18 strain [4] (prophylactic group, 10 mg/kg, P = 0.0012) was “significantly lowered”. For the same molecule, in the data set on PRRSV GSWW-18 strain [4] (prophylactic group, even at 25 mg/kg), the anal shedding result was “did not reduce”. Further, in the data set with PRRSV GSWW-18 strain [4] (setting [5]), the “virus in ILNs” value was “significantly suppressed”.
